In brackets after ≈: the same amount, converted by molar mass.
Key:
Enterococcus faecium = assay: Growth testing against ESKAPE pathogens: Enterococcus faecium; format: cell-based; parameters: key: Growth; X: No Growth
Procedure: (§1) Six analogs (FIG. 2) of the ciprofloxacin-N thiolated β-lactam were successfully synthesized. All these compounds were then tested against ESKAPE pathogens for bioactivity. The ESKAPE pathogens are a collection of six deadly superbugs, Enterococcus faecium, Staphylococcus aureus, Klebsiella pneumoniae, Acinetobacter baumannii, Pseudomonas aeruginosa, and Enterobacter species. […] G denotes growth and X denotes no growth in the tables.

Staphylococcus aureus = assay: Growth testing against ESKAPE pathogens: Staphylococcus aureus; format: cell-based; parameters: key to Activity against Staphylococcus aureus (growth observed): Growth; X: No Growth
Procedure: as §1

Klebesiella pneumonia = assay: Growth testing against ESKAPE pathogens: Klebesiella pneumonia; format: cell-based, Klebsiella pneumoniae; parameters: key: Growth; X: No Growth
Procedure: as §1

Acinetobacter baumannii = assay: Growth testing against ESKAPE pathogens: Acinetobacter baumannii; format: cell-based; parameters: key: Growth; X: No Growth
Procedure: as §1

Pseudomonas aeruginosa = assay: Growth testing against ESKAPE pathogens: Pseudomonas aeruginosa; format: cell-based; parameters: key: Growth; X: No Growth
Procedure: as §1

MRSA = assay: Growth inhibition against MRSA; format: cell-based; details: at 1 μg/ml against MRSA
Procedure: as §1
Synthesis of dual drugs for the antibacterial purposes is a huge arena of research and for the first time this was done with the N-thiolated β-lactams. Though both N-acyl ciprofloxacins and N-thiolated β-lactams have been independently studied, the attempt to combine them via a cleavable covalent bond was never done. This study has elaborated on the synthesis of six such analogs.

## CCC(C)SN1C(=O)C(OC(=O)c2cn(C3CC3)c3cc(N4CCN(C(C)=O)CC4)c(F)cc3c2=O)C1c1ccccc1Cl (stereo not drawn) [Lactam 125]
Enterococcus faecium; 1 μg/ml
  Activity against Enterococcus faecium (growth observed): G
Enterococcus faecium; 2 μg/ml
  Activity against Enterococcus faecium (growth observed): G
Enterococcus faecium; 3 μg/ml
  Activity against Enterococcus faecium (growth observed): G
Enterococcus faecium; 4 μg/ml
  Activity against Enterococcus faecium (growth observed): G
Enterococcus faecium; 5 μg/ml
  Activity against Enterococcus faecium (growth observed): G
Enterococcus faecium; 6 μg/ml
  Activity against Enterococcus faecium (growth observed): G
Enterococcus faecium; 7 μg/ml
  Activity against Enterococcus faecium (growth observed): G
Enterococcus faecium; 8 μg/ml
  Activity against Enterococcus faecium (growth observed): G
Enterococcus faecium; 9 μg/ml
  Activity against Enterococcus faecium (growth observed): G
Enterococcus faecium; 10 μg/ml
  Activity against Enterococcus faecium (growth observed): G
Enterococcus faecium; 25 μg/ml
  Activity against Enterococcus faecium (growth observed): G
Staphylococcus aureus; 1 μg/ml
  Activity against Staphylococcus aureus (growth observed): X
Staphylococcus aureus; 2 μg/ml
  Activity against Staphylococcus aureus (growth observed): X
Staphylococcus aureus; 3 μg/ml
  Activity against Staphylococcus aureus (growth observed): X
Staphylococcus aureus; 4 μg/ml
  Activity against Staphylococcus aureus (growth observed): X
Staphylococcus aureus; 5 μg/ml
  Activity against Staphylococcus aureus (growth observed): X
Staphylococcus aureus; 6 μg/ml
  Activity against Staphylococcus aureus (growth observed): X
Staphylococcus aureus; 7 μg/ml
  Activity against Staphylococcus aureus (growth observed): X
Staphylococcus aureus; 8 μg/ml
  Activity against Staphylococcus aureus (growth observed): X
Staphylococcus aureus; 9 μg/ml
  Activity against Staphylococcus aureus (growth observed): X
Staphylococcus aureus; 10 μg/ml
  Activity against Staphylococcus aureus (growth observed): X
Staphylococcus aureus; 25 μg/ml
  Activity against Staphylococcus aureus (growth observed): X
Staphylococcus aureus; against S. aureus
  MIC: 1 µg/mL (≈ 1.56 µM)
Klebesiella pneumonia; 1 μg/ml
  Activity against Klebesiella pneumonia (growth observed): G
Klebesiella pneumonia; 2 μg/ml
  Activity against Klebesiella pneumonia (growth observed): G
Klebesiella pneumonia; 3 μg/ml
  Activity against Klebesiella pneumonia (growth observed): G
Klebesiella pneumonia; 4 μg/ml
  Activity against Klebesiella pneumonia (growth observed): G
Klebesiella pneumonia; 5 μg/ml
  Activity against Klebesiella pneumonia (growth observed): G
Klebesiella pneumonia; 6 μg/ml
  Activity against Klebesiella pneumonia (growth observed): G
Klebesiella pneumonia; 7 μg/ml
  Activity against Klebesiella pneumonia (growth observed): G
Klebesiella pneumonia; 8 μg/ml
  Activity against Klebesiella pneumonia (growth observed): G
Klebesiella pneumonia; 9 μg/ml
  Activity against Klebesiella pneumonia (growth observed): G
Klebesiella pneumonia; 10 μg/ml
  Activity against Klebesiella pneumonia (growth observed): G
Klebesiella pneumonia; 25 μg/ml
  Activity against Klebesiella pneumonia (growth observed): G
Acinetobacter baumannii; 1 μg/ml
  Activity against Acinetobacter baumannii (growth observed): G
Acinetobacter baumannii; 2 μg/ml
  Activity against Acinetobacter baumannii (growth observed): G
Acinetobacter baumannii; 3 μg/ml
  Activity against Acinetobacter baumannii (growth observed): G
Acinetobacter baumannii; 4 μg/ml
  Activity against Acinetobacter baumannii (growth observed): G
Acinetobacter baumannii; 5 μg/ml
  Activity against Acinetobacter baumannii (growth observed): G
Acinetobacter baumannii; 6 μg/ml
  Activity against Acinetobacter baumannii (growth observed): G
Acinetobacter baumannii; 7 μg/ml
  Activity against Acinetobacter baumannii (growth observed): G
Acinetobacter baumannii; 8 μg/ml
  Activity against Acinetobacter baumannii (growth observed): G
Acinetobacter baumannii; 9 μg/ml
  Activity against Acinetobacter baumannii (growth observed): G
Acinetobacter baumannii; 10 μg/ml
  Activity against Acinetobacter baumannii (growth observed): G
Acinetobacter baumannii; 25 μg/ml
  Activity against Acinetobacter baumannii (growth observed): G
Pseudomonas aeruginosa; 1 μg/ml
  Activity against Pseudomonas aeruginosa (growth observed): G
Pseudomonas aeruginosa; 2 μg/ml
  Activity against Pseudomonas aeruginosa (growth observed): G
Pseudomonas aeruginosa; 3 μg/ml
  Activity against Pseudomonas aeruginosa (growth observed): G
Pseudomonas aeruginosa; 4 μg/ml
  Activity against Pseudomonas aeruginosa (growth observed): G
Pseudomonas aeruginosa; 5 μg/ml
  Activity against Pseudomonas aeruginosa (growth observed): G
Pseudomonas aeruginosa; 6 μg/ml
  Activity against Pseudomonas aeruginosa (growth observed): G
Pseudomonas aeruginosa; 7 μg/ml
  Activity against Pseudomonas aeruginosa (growth observed): G
Pseudomonas aeruginosa; 8 μg/ml
  Activity against Pseudomonas aeruginosa (growth observed): G
Pseudomonas aeruginosa; 9 μg/ml
  Activity against Pseudomonas aeruginosa (growth observed): G
Pseudomonas aeruginosa; 10 μg/ml
  Activity against Pseudomonas aeruginosa (growth observed): G
Pseudomonas aeruginosa; 25 μg/ml
  Activity against Pseudomonas aeruginosa (growth observed): G
MRSA
  growth inhibition: complete growth inhibition

Source: patent US10010545B1, “Antibiotic compositions and methods of use” (University of South Florida, priority 2013, dated 2018)
